What was measured:
Acetylcholinesterase [1] = molecular target: T1, Acetylcholinesterase (Homo sapiens, UniProt P22303); experiment: Inhibition of AChE (unknown origin) by spectrophotometric based Ellman's method
Staphylococcus aureus = experiment: Antibacterial activity against methicillin-resistant Staphylococcus aureus assessed as inhibition of bacterial growth incubated for 24 hrs by broth microdilution assay; format: functional, organism-based
Bel-7402 = experiment: Cytotoxicity against human Bel-7402 cells; format: functional, cell-based
K562 = experiment: Cytotoxicity against human K562 cells; format: functional, cell-based
SGC-7901 = experiment: Cytotoxicity against human SGC-7901 cells; format: functional, cell-based
Acetylcholinesterase [2] = molecular target: T1, Acetylcholinesterase; details: dose 50.0 mg/ml, time 1.0 hrs
A549 [3] = experiment: Cytotoxicity against human A549 cells; format: functional, cell-based
HeLa = experiment: Cytotoxicity against human HeLa cells; format: functional, cell-based
[4] = molecular target: cGMP-specific 3',5'-cyclic phosphodiesterase (Homo sapiens, UniProt O76074); experiment: Inhibition of human recombinant PDE5A1 using FAM-cGMP as substrate incubated for 60 mins by fluorescence polarization method
[5] = molecular target: cGMP-inhibited 3',5'-cyclic phosphodiesterase 3A (Homo sapiens, UniProt Q14432); experiment: Inhibition of human recombinant PDE3A using FAM-cAMP as substrate incubated for 60 mins by fluorescence polarization method
Sequence of cGMP-inhibited 3',5'-cyclic phosphodiesterase 3A (Q14432 whole entry): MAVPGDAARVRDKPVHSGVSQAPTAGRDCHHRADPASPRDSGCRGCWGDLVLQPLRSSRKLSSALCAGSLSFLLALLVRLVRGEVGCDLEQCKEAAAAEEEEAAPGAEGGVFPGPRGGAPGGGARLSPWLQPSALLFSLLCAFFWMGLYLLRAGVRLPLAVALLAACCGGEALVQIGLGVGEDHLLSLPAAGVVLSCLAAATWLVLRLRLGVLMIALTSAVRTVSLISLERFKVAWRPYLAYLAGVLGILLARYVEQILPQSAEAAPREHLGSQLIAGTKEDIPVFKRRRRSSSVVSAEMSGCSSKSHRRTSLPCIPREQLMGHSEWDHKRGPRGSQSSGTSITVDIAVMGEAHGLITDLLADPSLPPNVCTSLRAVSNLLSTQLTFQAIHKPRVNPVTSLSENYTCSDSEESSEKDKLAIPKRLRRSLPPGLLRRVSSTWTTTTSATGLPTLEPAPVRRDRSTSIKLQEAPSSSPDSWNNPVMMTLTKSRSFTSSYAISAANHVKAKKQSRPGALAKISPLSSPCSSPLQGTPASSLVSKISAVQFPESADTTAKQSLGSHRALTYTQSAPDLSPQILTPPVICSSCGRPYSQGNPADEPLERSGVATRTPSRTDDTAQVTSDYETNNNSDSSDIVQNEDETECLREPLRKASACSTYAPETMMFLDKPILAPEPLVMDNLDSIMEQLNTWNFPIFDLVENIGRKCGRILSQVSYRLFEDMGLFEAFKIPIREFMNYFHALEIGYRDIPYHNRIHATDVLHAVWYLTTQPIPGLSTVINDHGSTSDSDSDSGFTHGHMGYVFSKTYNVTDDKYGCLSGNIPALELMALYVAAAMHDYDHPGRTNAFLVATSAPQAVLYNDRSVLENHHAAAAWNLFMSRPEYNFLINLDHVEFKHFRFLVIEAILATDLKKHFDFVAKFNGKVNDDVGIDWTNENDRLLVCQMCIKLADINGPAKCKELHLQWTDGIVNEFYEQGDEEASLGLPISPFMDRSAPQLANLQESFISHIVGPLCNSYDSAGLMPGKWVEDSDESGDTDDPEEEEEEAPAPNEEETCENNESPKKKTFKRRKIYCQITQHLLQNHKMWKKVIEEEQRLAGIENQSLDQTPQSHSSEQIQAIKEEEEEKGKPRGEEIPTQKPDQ

[6] = Antioxidant activity assessed as inhibition of DPPH radical scavenging activity by measuring reduction in absorbance at 100 uM by spectrophotometric analysis relative to control; format: functional
Mushroom tyrosinase = Mushroom tyrosinase (Agaricus bisporus, UniProt O42713+Q00024+C7FF04+C7FF05); experiment: Inhibition of mushroom tyrosinase activity using L-tyrosine as substrate preincubated for 5 mins followed by substrate addition and measured after 20 mins by microplate reader analysis
RAW264.7 = experiment: Inhibition of NO production in LPS stimulated mouse RAW264.7 cells by Griess reagent based analysis; format: functional, cell-based
A549 [7] = experiment: Cytotoxicity against human A549 cells by MTT assay; format: functional, cell-based
[8] = molecular target: Nuclear factor NF-kappa-B complex (Homo sapiens) (UniProt Q00653+P19838+Q04206); experiment: Inhibition of LPS induced NF-kappaB activation (unknown origin) assessed as relative luciferase activity; format: protein-complex assay
Sequence of Nuclear factor NF-kappa-B complex (Homo sapiens) (P19838 whole entry, looked up): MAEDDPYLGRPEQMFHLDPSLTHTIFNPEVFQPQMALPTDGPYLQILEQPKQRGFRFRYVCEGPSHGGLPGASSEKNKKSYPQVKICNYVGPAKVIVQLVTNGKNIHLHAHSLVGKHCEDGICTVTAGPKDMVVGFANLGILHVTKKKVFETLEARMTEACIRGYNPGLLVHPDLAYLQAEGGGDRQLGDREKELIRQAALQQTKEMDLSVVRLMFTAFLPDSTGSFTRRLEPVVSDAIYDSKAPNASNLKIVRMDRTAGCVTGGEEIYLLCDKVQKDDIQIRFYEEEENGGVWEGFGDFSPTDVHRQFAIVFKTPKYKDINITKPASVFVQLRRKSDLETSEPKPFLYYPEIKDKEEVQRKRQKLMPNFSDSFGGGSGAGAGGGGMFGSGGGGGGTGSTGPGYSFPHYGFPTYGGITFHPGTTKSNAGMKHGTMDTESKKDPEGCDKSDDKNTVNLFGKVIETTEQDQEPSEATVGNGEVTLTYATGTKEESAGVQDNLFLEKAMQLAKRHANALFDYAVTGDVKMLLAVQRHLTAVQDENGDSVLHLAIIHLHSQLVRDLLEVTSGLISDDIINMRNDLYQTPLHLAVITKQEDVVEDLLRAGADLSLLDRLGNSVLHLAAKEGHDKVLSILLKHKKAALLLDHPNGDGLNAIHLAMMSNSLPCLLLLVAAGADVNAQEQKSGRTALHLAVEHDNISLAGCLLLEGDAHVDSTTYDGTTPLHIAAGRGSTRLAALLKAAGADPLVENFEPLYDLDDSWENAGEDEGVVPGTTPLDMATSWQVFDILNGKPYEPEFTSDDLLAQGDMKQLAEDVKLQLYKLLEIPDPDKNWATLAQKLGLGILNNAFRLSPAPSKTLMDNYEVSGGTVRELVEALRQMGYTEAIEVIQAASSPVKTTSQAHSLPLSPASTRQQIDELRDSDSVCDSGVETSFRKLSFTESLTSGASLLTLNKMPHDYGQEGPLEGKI
Sequence of Nuclear factor NF-kappa-B complex (Homo sapiens) (Q00653 whole entry, looked up): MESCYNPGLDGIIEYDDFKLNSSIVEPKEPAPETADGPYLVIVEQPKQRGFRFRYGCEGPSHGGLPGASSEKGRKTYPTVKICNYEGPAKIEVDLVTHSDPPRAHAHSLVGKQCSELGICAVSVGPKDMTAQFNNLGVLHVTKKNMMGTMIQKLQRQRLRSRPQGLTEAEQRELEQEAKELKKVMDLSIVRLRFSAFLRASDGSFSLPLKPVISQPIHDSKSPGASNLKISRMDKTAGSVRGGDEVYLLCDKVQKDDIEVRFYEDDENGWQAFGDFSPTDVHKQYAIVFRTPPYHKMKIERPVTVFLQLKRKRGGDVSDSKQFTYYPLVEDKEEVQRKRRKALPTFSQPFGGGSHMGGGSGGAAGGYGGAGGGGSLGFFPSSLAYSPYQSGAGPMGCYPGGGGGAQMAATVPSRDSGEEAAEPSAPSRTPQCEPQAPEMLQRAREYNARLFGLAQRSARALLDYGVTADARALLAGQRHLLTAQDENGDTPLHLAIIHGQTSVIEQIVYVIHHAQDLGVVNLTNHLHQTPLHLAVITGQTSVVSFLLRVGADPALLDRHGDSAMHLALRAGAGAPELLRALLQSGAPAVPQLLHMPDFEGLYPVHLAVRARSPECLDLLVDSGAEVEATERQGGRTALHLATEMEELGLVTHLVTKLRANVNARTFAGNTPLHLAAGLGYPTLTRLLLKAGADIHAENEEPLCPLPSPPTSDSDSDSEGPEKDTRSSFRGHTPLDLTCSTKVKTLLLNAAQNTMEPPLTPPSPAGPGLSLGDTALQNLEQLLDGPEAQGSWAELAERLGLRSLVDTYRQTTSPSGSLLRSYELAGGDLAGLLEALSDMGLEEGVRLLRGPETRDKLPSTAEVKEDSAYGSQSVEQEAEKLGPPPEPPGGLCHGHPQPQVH
Sequence of Nuclear factor NF-kappa-B complex (Homo sapiens) (Q04206 whole entry, looked up): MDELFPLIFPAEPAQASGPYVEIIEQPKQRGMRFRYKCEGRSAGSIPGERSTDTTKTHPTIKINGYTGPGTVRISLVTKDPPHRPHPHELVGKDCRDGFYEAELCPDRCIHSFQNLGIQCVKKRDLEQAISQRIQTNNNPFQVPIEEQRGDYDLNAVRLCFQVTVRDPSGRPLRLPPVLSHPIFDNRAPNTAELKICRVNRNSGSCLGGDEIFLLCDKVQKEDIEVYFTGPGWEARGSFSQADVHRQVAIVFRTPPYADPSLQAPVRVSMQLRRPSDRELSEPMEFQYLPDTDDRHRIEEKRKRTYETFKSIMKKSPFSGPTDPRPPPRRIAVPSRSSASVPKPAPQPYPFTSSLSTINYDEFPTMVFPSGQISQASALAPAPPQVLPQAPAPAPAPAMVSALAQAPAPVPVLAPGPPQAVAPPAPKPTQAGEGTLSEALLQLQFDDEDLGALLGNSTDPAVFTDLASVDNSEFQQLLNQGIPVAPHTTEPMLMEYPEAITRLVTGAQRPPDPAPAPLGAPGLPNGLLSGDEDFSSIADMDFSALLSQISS

T1 sequence (P22303 whole entry): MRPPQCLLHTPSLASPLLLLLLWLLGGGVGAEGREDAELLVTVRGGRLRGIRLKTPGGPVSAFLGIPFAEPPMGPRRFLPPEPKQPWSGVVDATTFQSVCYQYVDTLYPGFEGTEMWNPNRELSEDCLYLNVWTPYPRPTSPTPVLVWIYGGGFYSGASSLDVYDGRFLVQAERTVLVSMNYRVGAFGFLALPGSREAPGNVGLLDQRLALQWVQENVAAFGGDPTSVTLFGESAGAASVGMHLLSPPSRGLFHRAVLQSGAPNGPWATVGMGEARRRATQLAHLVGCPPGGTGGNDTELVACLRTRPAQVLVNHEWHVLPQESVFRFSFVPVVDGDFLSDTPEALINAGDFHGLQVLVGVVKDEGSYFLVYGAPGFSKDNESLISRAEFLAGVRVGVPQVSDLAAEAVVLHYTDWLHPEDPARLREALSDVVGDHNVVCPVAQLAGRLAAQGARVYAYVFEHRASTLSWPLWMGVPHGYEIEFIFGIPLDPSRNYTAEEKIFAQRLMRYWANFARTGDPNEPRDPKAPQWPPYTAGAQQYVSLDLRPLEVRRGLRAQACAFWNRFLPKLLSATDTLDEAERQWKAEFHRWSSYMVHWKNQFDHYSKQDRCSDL

Question: For COc1ccc(CCc2cc(=O)c3c(o2)[C@H]2O[C@H]2[C@@H](O)[C@H]3OC)cc1O, which IC50 (Acetylcholinesterase [1]) is on record?
Answer: 442 µM

Question: For COc1ccc(CCc2cc(=O)c3c(O)ccc(OC)c3o2)cc1, which IC50 (Staphylococcus aureus) is on record?
Answer: 220 µM

Question: Which IC50 (Bel-7402) does the source give for O=c1cc(CCc2ccccc2)oc2cc(O)c(O)cc12 here?
Answer: 5.76 µM

Question: And the IC50 (K562)?
Answer: 5.76 µM

Question: What about the IC50 (SGC-7901) of the same compound?
Answer: 5.76 µM

Question: With COc1ccc(CCc2cc(=O)c3c(o2)[C@H]2O[C@H]2[C@@H](O)[C@@H]3O)cc1 as the compound, how does the inhibition (Acetylcholinesterase [2]) read?
Answer: 17.5%

Question: Which results are given for O=c1cc(CCc2ccccc2)oc2c1[C@@H]1c3c(ccc4oc(CCc5ccccc5)cc(=O)c34)O[C@@H]([C@@H]1O)[C@H]2O?
Answer: IC50 (A549 [3]): 10.9 µM; IC50 (HeLa): 10.9 µM; IC50 (K562): 10.9 µM; IC50 (SGC-7901): 10.9 µM

Question: Which IC50 [4] does the source give for O=C(CCc1ccccc1)O[C@@H]1c2oc(CCc3ccccc3)cc(=O)c2[C@H](O)[C@@H](O)[C@H]1O here?
Answer: 15.1 µM

Question: What about the IC50 [5] of the same compound?
Answer: 42.6 µM

Question: With O=c1cc(CCc2ccccc2)oc2c1[C@H](O)[C@@H](O)[C@H]1O[C@@H]21 as the compound, how does the inhibition (Acetylcholinesterase [2]) read?
Answer: 17.5%

Question: What does the source list for O=c1cc(CCc2ccccc2)oc2c1[C@H]1c3c(ccc4oc(CCc5ccccc5)cc(=O)c34)O[C@H]([C@H]1O)[C@@H]2O?
Answer: IC50 (A549 [3]): 10.9 µM; IC50 (HeLa): 10.9 µM; IC50 (K562): 10.9 µM; IC50 (SGC-7901): 10.9 µM

Question: For O=c1cc(CCc2ccc(O)c(O)c2)oc2cc(O)cc(O)c12, which inhibition [6] is on record?
Answer: 91.2%

Question: With COc1cc(C[C@@H](O)c2cc(=O)c3c(O)cc(O)cc3o2)ccc1O as the compound, how does the inhibition [6] read?
Answer: 56.1%

Question: Which IC50 (Bel-7402) does the source give for COc1ccc(CCc2cc(=O)c3cc4c(cc3o2)O[C@H]2c3c(oc(CCc5ccccc5)cc3=O)[C@H](O)[C@@H](O4)[C@@H]2O)cc1 here?
Answer: 44.7 µM

Question: What does the source list for COc1ccc(CCc2cc(=O)c3cc(O)c(OC)cc3o2)cc1?
Answer: IC50 (Bel-7402): 5.76 µM; IC50 (K562): 5.76 µM; IC50 (SGC-7901): 5.76 µM

Question: Which IC50 (A549 [3]) does the source give for C=C(CO[C@H]1c2c(oc(CCc3ccc(OC)cc3)cc2=O)[C@H]2O[C@H]2[C@H]1O)[C@@H]1CC[C@]2(C)CCC[C@H](C)[C@@]2(C)C1 here?
Answer: 10.9 µM

Question: And the IC50 (HeLa)?
Answer: 10.9 µM

Question: What about the IC50 (K562) of the same compound?
Answer: 10.9 µM

Question: What about the IC50 (SGC-7901) of the same compound?
Answer: 10.9 µM

Question: With COc1ccc(CCc2cc(=O)c3cc(O)cc(O)c3o2)cc1 as the compound, how does the IC50 (Mushroom tyrosinase) read?
Answer: 51.5 µM

Question: Which IC50 (RAW264.7) does the source give for COc1ccc(CCc2cc(=O)c3c(o2)[C@@H](O)[C@H](O)[C@@H]2O[C@H]32)cc1 here?
Answer: 1.6 µM

Question: With COc1ccc(CCc2cc(=O)c3c(o2)[C@H](Cl)[C@H](O)[C@H](O)[C@@H]3O)cc1 as the compound, how does the IC50 (RAW264.7) read?
Answer: 1.6 µM

Question: With COc1ccc(CCc2cc(=O)c3c(o2)[C@@H](O)[C@H](O)[C@H](O)[C@H]3OC)cc1 as the compound, how does the inhibition (Acetylcholinesterase [2]) read?
Answer: 17.5%

Question: What does the source list for O=c1cc(CCc2ccccc2)oc2c(O)ccc(O)c12?
Answer: IC50 (RAW264.7): 1.6 µM; IC50 (Staphylococcus aureus): 220 µM

Question: With COc1ccc(CCc2cc(=O)c3cc(O)c(O)cc3o2)cc1 as the compound, how does the IC50 (Bel-7402) read?
Answer: 5.76 µM

Question: What about the IC50 (K562) of the same compound?
Answer: 5.76 µM

Question: What about the IC50 (SGC-7901) of the same compound?
Answer: 5.76 µM

Question: Which inhibition [6] does the source give for O=c1cc(CCc2ccc(O)cc2)oc2cc(O)cc(O)c12 here?
Answer: 56.1%

Question: With O=c1cc(CCc2ccccc2)oc2c(O)cc(O)cc12 as the compound, how does the IC50 (Staphylococcus aureus) read?
Answer: 220 µM

Question: For C=C(C)[C@H]1CC[C@@]2(C)CCCC(C(=O)O[C@H]3c4oc(CCc5ccccc5)cc(=O)c4[C@@H](O)[C@H](O)[C@@H]3O)=C2C1, which IC50 (A549 [7]) is on record?
Answer: 17.6 µM

Question: With COc1ccc(CCc2cc(=O)c3cc(O)c(O[C@@H]4c5oc(CCc6ccccc6)cc(=O)c5[C@H](O)[C@@H](O)[C@H]4O)cc3o2)cc1 as the compound, how does the IC50 [4] read?
Answer: 4.3 µM

Question: With COc1ccc(CCc2cc(=O)c3c(o2)[C@H]2O[C@H]2[C@@H](O)[C@H]3OC)cc1 as the compound, how does the IC50 (Acetylcholinesterase [1]) read?
Answer: 156 µM

Question: With COc1ccc(CCc2cc(=O)c3c(o2)[C@H]2O[C@H]2[C@@H](O)[C@@H]3O)cc1O as the compound, how does the inhibition (Acetylcholinesterase [2]) read?
Answer: 17.5%

Question: Which IC50 (A549 [7]) does the source give for C=C(C)[C@H]1CC[C@@]2(C)CCC=C(C(=O)O[C@H]3c4oc(CCc5ccccc5)cc(=O)c4[C@@H](O)[C@H](O)[C@@H]3O)[C@H]2C1 here?
Answer: 17.6 µM

Question: For COc1ccc(CCc2cc(=O)c3c(o2)[C@H](O)[C@H]2Oc4cc5oc(CCc6ccc(OC)cc6)cc(=O)c5cc4O[C@@H]3[C@H]2O)cc1, which IC50 (Bel-7402) is on record?
Answer: 42.1 µM

Question: For COc1ccc(CCc2cc(=O)c3c(o2)[C@@H]2O[C@@H]2[C@@H]2O[C@H]32)cc1O, which inhibition (Acetylcholinesterase [2]) is on record?
Answer: 17.5%

Question: With CCCOC(=O)c1cc(O)c(O)c(O)c1 as the compound, how does the inhibition [6] read?
Answer: 97.4%

Question: For COc1ccc(CCc2cc(=O)c3cc(OC)c(O)cc3o2)cc1, which IC50 (Staphylococcus aureus) is on record?
Answer: 220 µM

Question: Which IC50 (A549 [3]) does the source give for C=C(CO[C@H]1c2c(oc(CCc3ccccc3)cc2=O)[C@H]2O[C@H]2[C@H]1O)[C@@H]1CC[C@@]2(O)CCCC[C@@]2(C)C1 here?
Answer: 10.9 µM

Question: What about the IC50 (HeLa) of the same compound?
Answer: 10.9 µM

Question: What about the IC50 (K562) of the same compound?
Answer: 10.9 µM

Question: What about the IC50 (SGC-7901) of the same compound?
Answer: 10.9 µM

Question: With COc1ccc(CCc2cc(=O)c3c(O)c(O)ccc3o2)cc1O as the compound, how does the IC [8] read?
Answer: 0.31 µM

Question: Which IC50 [4] does the source give for O=c1cc(CCc2ccccc2)oc2c1[C@H](O)[C@@H](O)[C@@H](O)[C@@H]2Oc1cc2oc(CCc3ccccc3)cc(=O)c2cc1O here?
Answer: 4.2 µM

Question: For O=c1cc(CCc2ccccc2)oc2c1[C@H](O)[C@H](O)[C@H](O)[C@H]2Cl, which IC50 (RAW264.7) is on record?
Answer: 1.6 µM

Question: For COc1ccc(CCc2cc(=O)c3c(o2)[C@H](Cl)[C@@H](O)[C@@H](O)[C@H]3O)cc1, which IC50 (RAW264.7) is on record?
Answer: 1.6 µM

Question: With O=c1cc(CCc2ccc(O)cc2)oc2cc(OC3O[C@H](CO)[C@@H](O)[C@H](O)[C@H]3O)cc(O)c12 (stereo partly drawn) as the compound, how does the inhibition [6] read?
Answer: 56.1%

Question: Which IC50 [4] does the source give for COc1ccc(CCc2cc(=O)c3c(o2)[C@@H](Oc2cc(O)cc4c(=O)cc(CCc5ccccc5)oc24)[C@H](O)[C@H](O)[C@H]3O)cc1 here?
Answer: 7.9 µM

Question: With CO[C@@H]1c2c(oc(CCc3ccccc3)cc2=O)[C@H](O)[C@@H](O)[C@H]1O as the compound, how does the inhibition (Acetylcholinesterase [2]) read?
Answer: 17.5%

Question: Which IC [8] does the source give for COc1cc2oc(CCc3ccccc3)cc(=O)c2cc1O here?
Answer: 0.31 µM

Question: For COc1ccc(CCc2cc(=O)c3cc(OC)c(OC)cc3o2)cc1, which IC [8] is on record?
Answer: 0.31 µM

Question: Which IC [8] does the source give for COc1ccc2c(=O)cc(CCc3ccccc3)oc2c1 here?
Answer: 0.31 µM

Question: For COc1ccc(CCc2cc(=O)c3cc(O)c(OC)cc3o2)cc1O, which IC50 (Mushroom tyrosinase) is on record?
Answer: 89 µM

Question: With C/C1=C\CC/C(C(=O)O[C@@H]2c3oc(CCc4ccccc4)cc(=O)c3[C@H](O)[C@@H](O)[C@H]2O)=C/CC(C)(C)/C=C/C1 as the compound, how does the IC50 (A549 [7]) read?
Answer: 17.6 µM

Source: ChEMBL document CHEMBL5126554, “Occurrence, synthesis and biological activity of 2-(2-phenyethyl)chromones” (Eur J Med Chem, 2022)
